The values below come from US6649656B1, “Anthranilic acid derivatives” (Teijin Limited, priority 1998, dated 2003).

Structures are written as SMILES. Like-named read-outs stand apart in the source and are kept apart here.

The term IC50 denotes the concentration that gives 50% inhibition.

What all share (format): cell-based
For assay [1], the system named is IgE antibody production from human lymphocyte. As to the kind of experiment: Human in vitro IgE antibody production suppressing activity (lymphocyte culture with IL-4 + IL-10 + anti-CD40 antibody, sandwich ELISA). To be noted: for IC50: IgE antibody production; for inhibition at 1 µM: test drug concentration 1 μM, IL-4 + IL-10 + anti-CD40 antibody, read-out: IgE production suppressing ratio (%). As to the method: (§1) The concentrations of IgE and IgG antibodies were measured by the following method according to the method described in the Journal of Immunology vol.146, pp.1836-1842, 1991 and the Journal of Immunology vol. 147, pp.8-13, 1991.
(§2) Concretely, lymphocyte was separated from the peripheral venous blood of healthy person by density gradient centrifugation. The obtained lymphocyte was washed, suspended in a culture liquid (RPMI-1640 (product of Gibco Co.)+10% heat-inactivated FCS (product of Whittaker Co.)+100 μg/ml streptomycin+100 U/ml penicillin G+2 mM L-glutamine) and cultured for a week in the presence of interleukin 4 (IL-4, product of GENZYME Co.) (0.1 μg/ml), anti-CD40 antibody (antiCD40Aab, product of BIOSOURCE Co.), clone B-B20) (2 μg/ml) and interleukin 10 (IL-10, product of GENZYME Co.) (0.2 μg/ml) in the presence or absence of the compounds of the present invention described in the Tables 10 to 15 at various concentrations as test drugs.
(§3) The culture liquid was added to the culture system, the culture was continued for additional one week, and the concentrations of IgE and IgG antibodies in the supernatant were measured by sandwich ELISA method.
(§4) The measurement by ELISA method was carried out according to the known ELISA method by using rabbit anti-human IgE(ε) antibody (product of ICN Co.) as the primary antibody and biotin.anti-human IgE monoclonal antibody (G7-26, product of PharMingen Co.) as the secondary antibody for the measurement of IgE antibody concentration and anti-human IgG monoclonal antibody (G18-145, product of PharMingen Co.) as the primary antibody and biotin-donkey anti-human IgG antibody (H+L) (product of Jackson Co.) as the secondary antibody for the measurement of IgG antibody concentration, and using avidin-biotin-hourse radish peroxidase (ABC kit, product of Vector Lab.) as the enzyme and TMB (3,3′,5,5′-tetramethylbenzidine) microwell peroxidase substrate system (product of Kirkegaard & Perry Laboratories Inc.) as the substrate.
(§5) The value of IC50 and the suppressing ratio (%) at the test drug concentration of 1 μM were calculated based on the concentration attained in the absence of the compound of the present invention (reference: Ueshimna, et al. American Academy of Allergy & Immunology, 1995 Annual Meeting, Program No.818).
A general note: In an ELISA, binding on a coated surface is turned into a signal by an enzyme label.

Assay [2] has as its system IgG antibody production from human lymphocyte. As to the kind of experiment: Human in vitro IgG antibody production (same lymphocyte culture, sandwich ELISA). To be noted: for IC50: IgG antibody production; for inhibition at 1 µM: Homo sapiens, Lymphocyte, test drug concentration 1 μM, IL-4 + IL-10 + anti-CD40 antibody, read-out: IgG production suppressing ratio (%). On the procedure:
as §1, §2, §3, §4, §5

For a further assay, the system named is L929 cells. Put plainly: Measurement of cytotoxicity using mouse tumor cell L929 (neutral red assay). On the procedure: [Procedure] The cytotoxicity action on tumor cell was measured by neutral red assay (the method described in the Journal of Tissue Culture Methodology vol.9, p.7 (1984) and Toxicology Letters, vol.24, p.119 (1985)). Concretely, L929 cells (5×10^4 cells/ml, 10% FCS/RPMI) were added to the wells of a 96 well ELISA plate at a rate of 100 μL each and cultured for a night, and the testing compounds of respective measurement concentrations were dissolved in DMSO solution and added to the above cells. The culture was continued for 3 days, and 2.0 μL of Neutral Red was added to attain the final concentration of 0.01%. The mixture was incubated for 1 hour at 37° C., the supernatant of the cell culture product was removed and the residue was washed twice with 200 μL of PBS to remove excess Neutral Red. Thereafter, the dye taken into the cell was extracted by adding 100 μL of 50% ethanol-1% acetic acid aqueous solution and the amount of the dye was determined by measuring the absorbance at 490 nm. The cytotoxicity was determined at each concentration of the test compound taking the cytotoxicity free from the drug as 100%. […] Two sets of measurement were performed for each test under the same condition and the average value was used as the test result.

The mark [3] stands for this setting: 72 h, cytotoxic activity against L929, neutral red assay, 3 days culture, read-out: LD50 (the source's name).
The mark [4] stands for this setting: L929, 72 h, read-out: LD50 (μM).

As for `O=C(Nc1ccccc1C(=O)O)c1ccc(Oc2ccc(OCCN3CCCCC3)cc2)cc1` [compound 93], the IC50 in assay [1] is 0.738 µM; in assay [2] it was above 10 µM. Also, the inhibition at 1 µM in assay [1] was found to be 56.2%.

As to `O=C(Cc1ccc(Oc2ccc(OC3CCC(NC(=O)Nc4ccc(Cl)c(Cl)c4)CC3)cc2)cc1)Nc1ccccc1C(=O)O` (centres unmarked) [compound 142], in assay [1], the IC50 worked out at 0.034 µM and the inhibition at 1 µM turned out to be 100%. Moreover, in assay [2], the inhibition at 1 µM came to 93.7% and the IC50 was 0.141 µM. Further, the CC50 in the assay on L929 cells (setting [3]) worked out at 0.54 µM.

For `CC(=O)Nc1ccc(CCOc2ccc(Oc3ccc(CC(=O)Nc4ccccc4C(=O)O)cc3)cc2)cc1` [compound 45], the figures for the IC50 in assay [1] and in assay [2] were 0.305 µM and 0.631 µM, respectively. Moreover, the figures for the inhibition at 1 µM in assay [1] and in assay [2] were 99.4% and -179%, respectively. Also, in the assay with L929 cells (setting [3]), the CC50 came to 0.22 µM.

For the molecule `CCCCC(=O)N[C@H]1CC[C@@H](Oc2ccc3cc(Oc4ccc(C(=O)Nc5ccccc5C(=O)O)cc4)ccc3c2)CC1` [compound 370], the IC50 in assay [1] was 0.027 µM; in assay [2] it was above 1 µM. For the same molecule, the inhibition at 1 µM is 94.7% in assay [1] and -45.5% in assay [2]. Besides, the CC50 in the assay on L929 cells (setting [4]) worked out at 6.8 µM.

`O=C(Cc1ccc(Oc2ccc(OC3CCC(NS(=O)(=O)c4ccccc4)CC3)cc2)cc1)Nc1ccccc1C(=O)O` (centres unmarked) [compound 121]: in assay [1], the IC50 is 0.027 µM and the inhibition at 1 µM came out at 100%. Further, in assay [2], the inhibition at 1 µM turned out to be 77.5% and it took 0.543 µM to reach half-maximal inhibition (IC50). Besides, the CC50 in the assay on L929 cells (setting [4]) was found to be 1.8 µM.

Regarding `CC(C)(C)OC(=O)NC1CCC(Oc2ccc(Oc3ccc(CC(=O)Nc4ccccc4C(=O)O)cc3)cc2)CC1` (centres unmarked) [compound 133], in assay [1], the IC50 was 0.042 µM and the inhibition at 1 µM stood at 100%. In addition, in assay [2], the inhibition at 1 µM was determined as 98.2% and the IC50 came out at 0.228 µM. The CC50 in the assay on L929 cells (setting [4]) came to 0.33 µM.

As to `COC(=O)N1CCC(Oc2ccc(Oc3ccc(CC(=O)Nc4ccccc4C(=O)O)cc3)cc2)CC1` [compound 79], in assay [1], the IC50 is 0.04 µM and the inhibition at 1 µM is 100%. In assay [2], the inhibition at 1 µM is 92.4% and the IC50 was determined as 0.489 µM. Also, the CC50 in the assay on L929 cells (setting [4]) is 0.98 µM.

Regarding `CCOCCOc1ccc(Oc2ccc(CC(=O)Nc3ccccc3C(=O)O)cn2)cc1` [compound 415], in assay [1], the IC50 was 0.028 µM and the inhibition at 1 µM was determined as 100%. Besides, in assay [2], the inhibition at 1 µM was -85.8% and 9.76 µM corresponded to half-maximal inhibition (IC50).

As for `O=C(Cc1ccc(Oc2ccc(OC3CCC(NC(=O)c4ccc(Cl)c(Cl)c4)CC3)cc2)cc1)Nc1ccccc1C(=O)O` (centres unmarked) [compound 100], in assay [1], the IC50 is 0.028 µM and the inhibition at 1 µM is 100%. Further, in assay [2], the inhibition at 1 µM was found to be 100% and 0.244 µM corresponded to half-maximal inhibition (IC50). Further, in the assay on L929 cells (setting [3]), the CC50 amounted to 0.95 µM.

For the molecule `O=C(Cc1ccc(Oc2ccc3cc(OCCN4CCOCC4)ccc3c2)nc1)Nc1ccccc1C(=O)O` [compound 427], in assay [1], the IC50 came out at 0.04 µM and the inhibition at 1 µM was 96.4%. For the same molecule, in assay [2], the inhibition at 1 µM was above 10% and the IC50 is above 10 µM.

As to `O=C(Cc1ccc(Oc2ccc3cc(O[C@H]4CC[C@@H](NC(=O)c5cc(Cl)cnc5Cl)CC4)ccc3c2)cc1)Nc1ccccc1C(=O)O` [compound 351], in assay [1], the IC50 is below 0.01 µM and the inhibition at 1 µM was determined as 100%. In assay [2], the inhibition at 1 µM is 71.7% and the IC50 was 0.662 µM. Besides, the CC50 in the assay with L929 cells (setting [3]) amounted to 0.31 µM.

Regarding `O=C(Cc1ccc(Oc2ccc(OC3CCOCC3)cc2)cc1)Nc1ccccc1C(=O)O` [compound 44], in assay [1], the IC50 came to 0.221 µM and the inhibition at 1 µM came out at 100%. Besides, in assay [2], the inhibition at 1 µM turned out to be 88.5% and the IC50 came out at 0.404 µM. Further, in the assay on L929 cells (setting [4]), the CC50 worked out at 1.16 µM.
